Source: patent US20190282600A1, “COMBINATION THERAPIES TARGETING TERT DEPENDENCY FOR CANCER THERAPY” (The Wistar Institute of Anatomy and Biology, priority 2018, published 2019)

Tests used:
[1] = tested on: NRAS mutant melanoma cells; assay: Reactive oxygen species by flow cytometry (H2DCFDA, MitoSox Red); format: cell-based, Human; settings: 1 μM 6-thio-dG for 7 days
Method: FIGS. 2a to 2c show NRAS^mut melanoma cells (FIG. 2a), BRAF-V600E/NRAS mutant cells derived from melanoma patients resistant to BRAF/MEK inhibitors (FIG. 2b), or non-transformed melanocytes and fibroblasts (FIG. 2c) were treated with 6-thio-dG for 7 days. Cell viability was measured by Alamar Blue assay and calculated relative to DMSO-treated cells. […] Cell death was assessed by PSVUe staining. Percent of apoptotic cells is shown. […] Mean TRF length expressed as kilobase pairs is indicated at the bottom. […] FIG. 2g provides a bar graph showing that DNA damage was assessed by γH2AX staining. […] Tumor volume was measured and average tumor volume (n=4) ±SEM was plotted vs. time.
FIGS. 3a to 3g provides graphs showing that telomere dysfunction enhances oxidative stress leading to upregulation of an antioxidant program. […] Mitochondrial superoxide production was measured by MitoSox Red fluorescence (FIGS. 3c, and 3d) and expressed as fluorescence relative to vector or DMSO controls. […] Transduced M93-047 cells were treated with DMSO or 1 μM of 6-thio-dG and cell death was assessed by Annexin V/PI straining. […] Transduced cells were treated with increasing doses (1, 2.5 and 5 μM) of 6-thio-dG for 7 days and cell death was assessed. […]
General or mitochondrial specific ROS were measured by flow cytometry H2DCFDA or MitoSoxRed (Invitrogen, Waltham, Mass.) following manufacturer's specifications.

[2] = tested on: NRAS-WT/BRAF-WT melanoma cells; assay: Cell death by Annexin V/PI flow cytometry; format: cell-based, Human; settings: 1 μM 6-thio-dG, 5 μM Gam, single agents or in combination
Method: FIGS. 5a to 5e provide bar graphs showing that combination treatment with 6-Thio-dG and Gamitrinib (Gam) triggers death selectively in NRAS mutant tumor cells. NRAS-WT/BRAF-WT melanoma cells (FIG. 5a), NRAS-WT/BRAF-mut melanoma cells (FIG. 5b), NRAS mutant neuroblastoma cells (FIG. 5c), NRAS-WT/KRAS-mutant colon cancer cells (FIG. 5d), and NRAS-WT/KRAS-mutant lung cancer cells were treated with 1 μM 6-thio-dG for 5 days (FIG. 5e). At day 5, culture medium was replaced and cells treated with 1 μM 6-thio-dG plus 5 μM Gam for two more days. Cells were stained with Annexin V and PI and percent cell death was determined by FACS. Data represent average of three independent experiments +/−SEM; p values were calculated using un-paired Student's t-test; *p<0.05; **p<0.001.
Cells were seeded in 96-well plates and treated with drugs. After 6 days, cell viability was assessed following 6h incubation with […] Alamar Blue (ThermoFisherScientific, Philadelphia, Pa.) by measuring fluorescence using an EnVision Xcite Multilabel plate reader (Perkin Elmer, Waltham, Mass.). Cell death was determined by flow cytometry using PSVue-643 (Molecular Targeting Technologies) or Annexin V (640919, Biolegend, San Diego, Calif.) and Propidium Iodide (Sigma) staining. Samples were analyzed using a BD LSRII flow cytometer (BD Biosciences, San Jose, Calif.).

Nc1nc2c(ncn2[C@H]2C[C@H](O)[C@@H](CO)O2)c(=S)[nH]1 [6-thio-dG, 6-thio-2′-deoxyguanosine]
ROS levels (H2DCFDA) [1]: increased levels | mitochondrial ROS levels (MitoSox Red) [1]: increased mitochondrial ROS levels | cell death [2]: did not induce cell death
